{"source": "patent US20250075190A1", "about": "“DE NOVO DESIGNED LUCIFERASE” (UNIVERSITY OF WASHINGTON, priority 2022, published 2025)", "format_in_all_cases": "biochemical", "key": {"[1]": {"tested_on": "LuxSit-i (de novo designed luciferase; LuxSit variant R60S/A96L/M110V, 60S/96L/98H/110V; SEQ ID NO:2)", "assay": "Michaelis-Menten kinetics of LuxSit-i with DTZ", "conditions": "substrate DTZ; for Km / Vmax: Tris pH 8.0", "from_the_text": "(§1) Synthetic genes and oligonucleotides were purchased from Integrated DNA Technologies or GenScript. The synthetic gene was inserted between NdeI and XhoI sites of a pET29b+ vector, containing an N-terminal hexahistidine tag followed by a TEV protease cleavage site and a C-terminal stop codon. Restriction endonucleases, Q5 PCR polymerase, and T4 ligase were purchased from NEB. Plasmid DNA, PCR products, or digested fragments were purified by Qiagen DNA purification kits. DNA sequences were analyzed by Genewiz. Coelenterazine (CTZ) was purchased from Gold Biotechnology. Diphenylterazine (DTZ), pyridyl diphenylterazine (8pyDTZ), and Furimazine (FRZ) were purchased from MedChemExpress. All other coelenterazine analogs (bis-CTZ: bisdeoxycoelenterazine; f-CTZ: f-Coelenterazine; e-CTZ: e-Coelenterazine-F; PP-CTZ: methoxy e-Coelenterazine; v-CTZ: v-Coelenterazine. All other chemicals were purchased from Sigma-Aldrich or Fisher Scientific and used without further purification. To identify the molecular mass of each protein, intact mass spectra were obtained via reverse-phase LC/MS on an Agilent 6230B TOF on an AdvanceBio RP-Desalting column and subsequently deconvoluted by Bioconfirm software using a […] algorithm. AKTA pure M with UNICORN 6.3.2 Workstation control (GE Healthcare) coupled with a Superdex™ 75 Increase 10/300 GL column was used for size exclusion chromatography. DNA and protein concentrations were determined by a NanoDrop™ small-volume 8 channel UV/vis spectrometer. CD spectra and CD melting experiments were performed by the default setting on a J-1500 Circular Dichroism Spectropolarimeter (Jasco). All luminescence measurements were acquired by a Biotek Synergy Neo2T™ Multi-Mode Plate Reader. To convert relative arbitrary unit (RLU) to the number of photons, Neo2 plate reader was calibrated by determining the chemiluminescence of luminol with known quantum yield in the presence of horseradish peroxidase and hydrogen peroxide in K2CO3 aqueous solution as previously described^45. SDS PAGE and luminescence images were captured by a Bio-Rad ChemiDocT™ XRS+. Images were analyzed using the Fiji image analysis software.\n(§2) Lemo21(DE3) strain was used for transformation with the pET29b+ plasmid encoding the gene of interest. Transformed cells were grown for 12 h in TB medium supplemented with kanamycin. Cells were inoculated at 1:50 ratio in 100 mL fresh TB medium, grown at 37° C. for 4 h, and then induced by IPTG for an additional 18 h at 16° C. Cells were harvested by centrifugation at 4,000 g for 10 min and resuspended in 30 mL lysis buffer (20 mM Tris-HCl pH 8.0, 300 mM NaCl, 30 mM imidazole, and Pierce™ Protease Inhibitor Tablets). Cell resuspensions were lysed by sonication for 5 min (10 s per cycle). Lysates were clarified by centrifugation at 24,000 g at 12° C. for 40 min and pre-equilibrated with 1 mL of Ni-NTA nickel agarose at 4° C. for 1 h. The resin was washed twice with 10 mL wash buffer and then eluted in 1 mL elution buffer (20 mM Tris-HCl pH 8.0, 300 mM NaCl, 300 mM imidazole). The eluted proteins were purified by size exclusion chromatography in PBS. Fractions were collected based on A280 trace, snap-frozen in liquid nitrogen, and stored at −80° C.,\n(§3) To create libraries of each single amino acid substitution at residues 13, 14, 17, 18, 35, 37, 38, 49, 52, 53, 56, 60, 65, 81, 83, 94, 96, 98, 100, 110, and 112, forward oligos mixture with degenerate codons (NDT, VHG, and TGG=1:1:0.1 ratio) and an overlapped reverse oligo were used to amplify the plasmid of LuxSit. The resulting PCR products were circularized by Gibson Assembly protocol and were subsequently used to transform ElectroMAX™ DH10B Cells. The cells were plated on 150 mm×15 mm LB agar plates supplemented with carbenicillin and L-arabinose, incubated at 37° C. overnight, and left at 4° C. for another 24 h. As described in the screening of luciferase libraries, colony-based screening by spraying DTZ solution was used to identify active colonies. […]. […]"}, "[2]": {"tested_on": "LuxSit (de novo designed luciferase, SEQ ID NO:1) variant H98N", "assay": "Michaelis-Menten kinetics of LuxSit H98N with DTZ", "conditions": "substrate DTZ; mean (95% CI), n = 3; Tris pH 8.0", "from_the_text": "(§4) Synthetic genes and oligonucleotides were purchased from Integrated DNA Technologies or GenScript. The synthetic gene was inserted between NdeI and XhoI sites of a pET29b+ vector, containing an N-terminal hexahistidine tag followed by a TEV protease cleavage site and a C-terminal stop codon. Restriction endonucleases, Q5 PCR polymerase, and T4 ligase were purchased from NEB. Plasmid DNA, PCR products, or digested fragments were purified by Qiagen DNA purification kits. DNA sequences were analyzed by Genewiz. Coelenterazine (CTZ) was purchased from Gold Biotechnology. Diphenylterazine (DTZ), pyridyl diphenylterazine (8pyDTZ), and Furimazine (FRZ) were purchased from MedChemExpress. […] DNA and protein concentrations were determined by a NanoDrop™ small-volume 8 channel UV/vis spectrometer. […] All luminescence measurements were acquired by a Biotek Synergy Neo2T™ Multi-Mode Plate Reader. To convert relative arbitrary unit (RLU) to the number of photons, Neo2 plate reader was calibrated by determining the chemiluminescence of luminol with known quantum yield in the presence of horseradish peroxidase and hydrogen peroxide in K2CO3 aqueous solution as previously described^45. SDS PAGE and luminescence images were captured by a Bio-Rad ChemiDocT™ XRS+. Images were analyzed using the Fiji image analysis software. […]"}, "[3]": {"tested_on": "LuxSit (de novo designed luciferase, parent, 60R/96A/98H/110M; SEQ ID NO:1)", "assay": "Michaelis-Menten kinetics of LuxSit (parent) with DTZ", "conditions": "substrate DTZ; mean (95% CI), n = 3; Tris pH 8.0", "from_the_text": "as §4"}, "[4]": {"tested_on": "LuxSit (de novo designed luciferase, SEQ ID NO:1) variant Y14E", "assay": "Michaelis-Menten kinetics of LuxSit Y14E with DTZ", "conditions": "substrate DTZ; mean (95% CI), n = 3; Tris pH 8.0", "from_the_text": "as §4"}, "[5]": {"tested_on": "LuxSit (de novo designed luciferase, SEQ ID NO:1) variant A96I", "assay": "Michaelis-Menten kinetics of LuxSit A96I with DTZ", "conditions": "substrate DTZ; mean (95% CI), n = 3; Tris pH 8.0", "from_the_text": "as §4"}, "[6]": {"tested_on": "LuxSit-f (de novo designed luciferase; LuxSit variant A96M/M110V, 60R/96M/98H/110V; SEQ ID NO:3)", "assay": "Michaelis-Menten kinetics of LuxSit-f with DTZ", "conditions": "substrate DTZ; for Km / Vmax: Tris pH 8.0", "from_the_text": "as §1, §2, §3"}, "[7]": {"tested_on": "LuxSit (de novo designed luciferase, SEQ ID NO:1) variant M110C", "assay": "Michaelis-Menten kinetics of LuxSit M110C with DTZ", "conditions": "substrate DTZ; mean (95% CI), n = 3; Tris pH 8.0", "from_the_text": "as §4"}, "[8]": {"tested_on": "LuxSit (de novo designed luciferase, SEQ ID NO:1) variant R60C", "assay": "Michaelis-Menten kinetics of LuxSit R60C with DTZ", "conditions": "substrate DTZ; mean (95% CI), n = 3; Tris pH 8.0", "from_the_text": "as §4"}, "[9]": {"tested_on": "LuxSit (de novo designed luciferase, SEQ ID NO:1) variant A96M", "assay": "Michaelis-Menten kinetics of LuxSit A96M with DTZ", "conditions": "substrate DTZ; mean (95% CI), n = 3; Tris pH 8.0", "from_the_text": "as §4"}}, "data": [{"compound": "O=c1c(Cc2ccccc2)nc2c(-c3ccccc3)[nH]c(-c3ccccc3)cn1-2", "note": "[DTZ, Diphenylterazine]", "values": [{"measurement": "apparent Michaelis constant KM", "setting": "[1]; in words (FIG. 3a)", "value": "low μM range"}, {"measurement": "Km", "setting": "[1]; 100 nM enzyme, Table 3", "value": 2.5, "unit": "µM"}, {"measurement": "Vmax", "setting": "[1]; 100 nM enzyme, Table 3", "value": 0.36, "unit": "photon s^−1 molecule^−1"}, {"measurement": "kcat", "setting": "[1]; kcat=Vmax/LQY, Table 3", "value": 2.5, "unit": "s⁻¹"}, {"measurement": "Km", "setting": "[1]; mean (95% CI), n = 3, Table 4", "value": 2.5, "unit": "µM"}, {"measurement": "Vmax", "setting": "[1]; mean (95% CI), n = 3, Table 4", "value": "36.1(33.7-38.6) ×10^−2 photon s^−1 molecule^−1"}, {"measurement": "Km", "setting": "[2]", "value": 29.3, "unit": "µM"}, {"measurement": "Vmax", "setting": "[2]", "value": "0.17(0.15-0.2) ×10^−2 photon s^−1 molecule^−1"}, {"measurement": "Km", "setting": "[3]", "value": 18.3, "unit": "µM"}, {"measurement": "Vmax", "setting": "[3]", "value": "0.32(0.29-0.37) ×10^−2 photon s^−1 molecule^−1"}, {"measurement": "Km", "setting": "[4]", "value": 12.6, "unit": "µM"}, {"measurement": "Vmax", "setting": "[4]", "value": "0.19(0.17-0.21) ×10^−2 photon s^−1 molecule^−1"}, {"measurement": "Km", "setting": "[5]", "value": 17.5, "unit": "µM"}, {"measurement": "Vmax", "setting": "[5]", "value": "1.3(1.1-1.5) ×10^−2 photon s^−1 molecule^−1"}, {"measurement": "apparent Michaelis constant KM", "setting": "[6]; in words (FIG. 3a)", "value": "low μM range"}, {"measurement": "Km", "setting": "[6]; 100 nM enzyme, Table 3", "value": 8.9, "unit": "µM"}, {"measurement": "Vmax", "setting": "[6]; 100 nM enzyme, Table 3", "value": 0.20, "unit": "photon s^−1 molecule^−1"}, {"measurement": "kcat", "setting": "[6]; kcat=Vmax/LQY, Table 3", "value": 1.8, "unit": "s⁻¹"}, {"measurement": "Km", "setting": "[6]; mean (95% CI), n = 3, Table 4", "value": 8.9, "unit": "µM"}, {"measurement": "Vmax", "setting": "[6]; mean (95% CI), n = 3, Table 4", "value": "19.7(17.9-21.9) ×10^−2 photon s^−1 molecule^−1"}, {"measurement": "Km", "setting": "[7]", "value": 67.5, "unit": "µM"}, {"measurement": "Vmax", "setting": "[7]", "value": "0.4(0.3-0.6) ×10^−2 photon s^−1 molecule^−1"}, {"measurement": "Km", "setting": "[8]", "value": 45.2, "unit": "µM"}, {"measurement": "Vmax", "setting": "[8]", "value": "0.57(0.44-0.8) ×10^−2 photon s^−1 molecule^−1"}, {"measurement": "Km", "setting": "[9]", "value": 4.8, "unit": "µM"}, {"measurement": "Vmax", "setting": "[9]", "value": "6.0(5.3-6.9) ×10^−2 photon s^−1 molecule^−1"}]}]}
